Data published in PubChem BioAssay AID1259407 (Chemical Carcinogenesis Research Information System (CCRIS), 2018).
Calls of active or inactive are those of the source. How the calls were made is not given here.

Test system: CCRIS mutagenicity, Ames/micronucleus/aberration tests
Assay: CCRIS mutagenicity studies

SMILES	mutagenic call (End Point: IN VITRO CHROMOSOMAL ABERRATIONS, Test System: CHINESE HAMSTER LUNG FIBROBLAST CELLS (CHL/IU), Metabolic Activation: RAT, LIVER, S-9, PHENOBARBITAL AND 5,6-BENZOFLAVONE)	mutagenic call (Test System: AMES SALMONELLA TYPHIMURIUM, Strain/Indicator: TA98, Metabolic Activation: HAMSTER, LIVER, S-9, AROCLOR 1254, Method: PREINCUBATION)	mutagenic call (Test System: AMES SALMONELLA TYPHIMURIUM, Strain/Indicator: TA98, Metabolic Activation: NONE, Method: PREINCUBATION)	mutagenic call (Test System: AMES SALMONELLA TYPHIMURIUM, Strain/Indicator: TA98, Metabolic Activation: RAT, LIVER, S-9, AROCLOR 1254, Method: PREINCUBATION)	mutagenic call (Test System: AMES SALMONELLA TYPHIMURIUM, Strain/Indicator: TA100, Metabolic Activation: HAMSTER, LIVER, S-9, AROCLOR 1254, Method: PREINCUBATION)	mutagenic call (Test System: AMES SALMONELLA TYPHIMURIUM, Strain/Indicator: TA100, Metabolic Activation: NONE, Method: PREINCUBATION)	mutagenic call (Test System: AMES SALMONELLA TYPHIMURIUM, Strain/Indicator: TA100, Metabolic Activation: RAT, LIVER, S-9, AROCLOR 1254, Method: PREINCUBATION)	mutagenic call (Test System: AMES SALMONELLA TYPHIMURIUM, Strain/Indicator: TA1535, Metabolic Activation: HAMSTER, LIVER, S-9, AROCLOR 1254, Method: PREINCUBATION)	mutagenic call (Test System: AMES SALMONELLA TYPHIMURIUM, Strain/Indicator: TA1535, Metabolic Activation: NONE, Method: PREINCUBATION)	mutagenic call (Test System: AMES SALMONELLA TYPHIMURIUM, Strain/Indicator: TA1535, Metabolic Activation: RAT, LIVER, S-9, AROCLOR 1254, Method: PREINCUBATION)	mutagenic call (Test System: AMES SALMONELLA TYPHIMURIUM, Strain/Indicator: TA1537, Metabolic Activation: HAMSTER, LIVER, S-9, AROCLOR 1254, Method: PREINCUBATION)	mutagenic call (Test System: AMES SALMONELLA TYPHIMURIUM, Strain/Indicator: TA1537, Metabolic Activation: NONE, Method: PREINCUBATION)	mutagenic call (Test System: AMES SALMONELLA TYPHIMURIUM, Strain/Indicator: TA1537, Metabolic Activation: RAT, LIVER, S-9, AROCLOR 1254, Method: PREINCUBATION)	mutagenic call (Test System: MOUSE LYMPHOMA, Strain/Indicator: L5178Y (TK+/TK-), Metabolic Activation: NONE, Method: MICROWELL)	mutagenic call (Test System: MOUSE LYMPHOMA, Strain/Indicator: L5178Y (TK+/TK-), Metabolic Activation: NONE, Method: SUSPENSION/PLATE)	mutagenic call (Test System: MOUSE LYMPHOMA, Strain/Indicator: L5178Y (TK+/TK-), Metabolic Activation: S-9, Method: MICROWELL)	mutagenic call (Test System: AMES SALMONELLA TYPHIMURIUM, Strain/Indicator: TA100, Metabolic Activation: S-9, Method: STANDARD PLATE)
O=C(O)C1C(C(=O)O)C2(Cl)C(Cl)=C(Cl)C1(Cl)C2(Cl)Cl (configuration not stated)	active; positive (structural changes)	inactive; negative	inactive; negative	inactive; negative	inactive; negative	inactive; negative	inactive; negative	inactive; negative	inactive; negative	inactive; negative	inactive; negative	inactive; negative	inactive; negative	active; positive	active; positive	active; positive	–
O=C(N=c1sn(C(=O)c2ccc([N+](=O)[O-])cc2)c2ccccc12)c1ccc([N+](=O)[O-])cc1	–	–	–	–	–	–	–	–	–	–	–	–	–	–	–	–	active; positive
